Data published in patent publication US7538241B2, “Hsp90 family protein inhibitors” (Kyowa Hakko Kogyo Co., Ltd., priority 2003, dated 2009).

System: human chronic myelocytic leukemia-derived K562 cells
Test: Cell growth inhibition test with K562 cells (WST-1)
Assay type: cell-based
Conditions: 72 hours, read-out: 50% growth inhibition concentration (GI50)
Method: In a 96-well plate (Nunc), human chronic myelocytic leukemia-derived K562 cells were sown in an amount of 1500 cells/well, and pre-incubated in 10% FCS-containing Rosewell Park Memorial Institute's Medium (RPMI) 1640 (Nissui) (incubation medium) in a 5% carbon dioxide incubator at 37° C. for 5 hours. Next, a DMSO solution of a test compound controlled at 10 mmol/L was stepwise diluted with the incubation medium, and added to each well in a total amount of 100 μL/well, and further incubated in the 5% carbon dioxide incubator at 37° C. for 72 hours. After the incubation, WST-1-labeled mixture (Rosh Diagnostic) diluted 2-fold with the incubation medium was added thereto in an amount of 20 μL/well, and incubated in the 5% carbon dioxide incubator at 37° C. for 2 hours. Using a microplate spectrophotometer (Biorad's Model 550), the absorbance at 450 nm and 655 nm of each well was measured. The cell growth inhibition activity of the test compound was indicated by the 50% growth inhibition concentration (GI50) thereof, like in Test Example 2.

| Compound | GI50 [µM] |
| --- | --- |
| CCc1c(O)cc(O)c(-c2cccc(O)c2)c1CCOCC1CO1 (stereo not shown) [Compound 219, 6-Ethyl-4-(3-hydroxyphenyl)-5-[2-(oxiran-2-ylmethoxy)ethyl]benzene-1,3-diol] | ≤ 50 |
| CCc1c(O)cc(O)c(-c2ccccc2)c1CCC(=O)NCCO [Compound 220, 3-(2-Ethyl-3,5-dihydroxy-6-phenylphenyl)-N-(2-hydroxyethyl)propanamide] | ≤ 50 |
| CCc1c(O)cc(O)c(-c2ccccc2)c1CCC(=O)NCCNC(C)=O [Compound 221, N-[2-(acetylamino)ethyl]-3-(2-ethyl-3,5-dihydroxy-6-phenylphenyl)propanamide] | ≤ 50 |
| CCc1c(O)cc(O)c(-c2ccccc2)c1CCc1ocnc1C(N)=O [Compound 222, 5-[2-(2-Ethyl-3,5-dihydroxy-6-phenylphenyl)ethyl]-1,3-oxazole-4-carboxamide] | ≤ 50 |
| CCc1c(O)cc(O)c(-c2ccccc2)c1CCc1ocnc1C(=O)NCCO [Compound 223, 5-[2-(2-Ethyl-3,5-dihydroxy-6-phenylphenyl)ethyl]-N-(2-hydroxyethyl)-1,3-oxazole-4-carboxamide] | ≤ 50 |
| CCc1c(O)cc(O)c(-c2ccccc2)c1CCc1ocnc1C(=O)N(CCO)CCO [Compound 224, 5-[2-(2-ethyl-3,5-dihydroxy-6-phenylphenyl)ethyl]-N,N-bis(2-hydroxyethyl)-1,3-oxazole-4-carboxamide] | ≤ 50 |
| CCc1c(O)cc(O)c(-c2ccccc2)c1CCc1ocnc1C(=O)NC(CO)CO [Compound 225, 5-[2-(2-ethyl-3,5-dihydroxy-6-phenylphenyl)ethyl]-N-[2-hydroxy-1-(hydroxymethyl)ethyl]-1,3-oxazole-4-carboxamide] | ≤ 50 |
| CCc1c(O)cc(O)c(-c2ccccc2)c1CCc1ocnc1C(=O)NCC(O)CO (stereo not shown) [Compound 226, N-(2,3-dihydroxypropyl)-5-[2-(2-ethyl-3,5-dihydroxy-6-phenylphenyl)ethyl]-1,3-oxazole-4-carboxamide] | ≤ 50 |
| CCc1c(O)cc(O)c(-c2cccc(C)c2)c1CC1O[C@H](CO)[C@@H](CO)O1 [Compound 228, 5-{[(4R,5R)-4,5-bis(hydroxymethyl)-1,3-dioxolan-2-yl]methyl}-6-ethyl-4-(3-methylphenyl)benzene-1,3-diol] | ≤ 50 |
| OC[C@H]1OC(Cc2cc(O)cc(O)c2-c2ccccc2)O[C@@H]1CO [Compound 230, 5-{[(4R,5R)-4,5-bis(hydroxymethyl)-1,3-dioxolan-2-yl]methyl}-4-phenylbenzene-1,3-diol] | ≤ 50 |
| OC[C@H]1OC(Cc2c(Br)c(O)cc(O)c2-c2ccccc2)O[C@@H]1CO [Compound 232, 5-{[(4R,5R)-4,5-bis(hydroxymethyl)-1,3-dioxolan-2-yl]methyl}-6-bromo-4-phenylbenzene-1,3-diol] | ≤ 50 |
| CCc1c(O)cc(O)c(-c2cccc(OC)c2)c1CC1O[C@@H](CO)[C@H](CO)O1 [Compound 233, 5-{[(4S,5S)-4,5-Bis(hydroxymethyl)-1,3-dioxolan-2-yl]methyl}-6-ethyl-4-(3-methoxyphenyl)benzene-1,3-diol] | ≤ 50 |
| CC(=O)c1c(O)cc(O)c(-c2ccccc2)c1CC1O[C@H](CO)[C@@H](CO)O1 [Compound 234, 1-(6-{[(4R,5R)-4,5-bis(hydroxymethyl)-1,3-dioxolan-2-yl]methyl}-2,4-dihydroxy-5-phenylphenyl)ethanone] | ≤ 50 |
| COC(=O)Cc1cc(O)cc(O)c1-c1ccc(CCC(C)=O)o1 [Compound 261, Methyl 3,5-dihydroxy-2-[5-(3-oxobutyl)furan-2-yl]phenylacetate] | ≤ 50 |
| OC[C@H]1OC(Cc2c(Cl)c(O)cc(O)c2-c2ccccc2)O[C@@H]1CO [Compound 280, 5-{[(4R,5R)-4,5-bis(hydroxymethyl)-1,3-dioxolan-2-yl]methyl}-6-chloro-4-phenylbenzene-1,3-diol] | ≤ 50 |
| CCc1c(O)cc(O)c(-c2cccc(O)c2)c1CC1O[C@@H](CO)[C@H](CO)O1 [Compound 281, 5-{[(4S,5S)-4,5-bis(hydroxymethyl)-1,3-dioxolan-2-yl]methyl}-6-ethyl-4-(3-hydroxyphenyl)benzene-1,3-diol] | ≤ 50 |
